What all share (format): biochemical
One test has as its target T1, PDE 5 (Homo sapiens, UniProt O76074).
T1 construct: The fractions containing the enzymatic activities (PDE 3 or PDE 5) were pooled; from tissue; host or cells: human platelets from platelet rich plasma of healthy volunteers
The test can be described thus: PDE 5 enzyme inhibition (SPA). Particulars: 10^−6 M; PDE 5 from human platelets; cGMP. On the procedure: (§1) a) Human Platelet Preparation
(§2) Human platelets were prepared from platelet rich plasma (PRP) obtained from healthy volunteers. The PRP was centrifuiged at 2,200 rpm for 15 minutes at 4° C. and the pellet was suspended in lysis solution (15 ml; 155 mM NH4Cl, 10 mM KHCO3 and 0.1 mM Na2EDTA, pH=7.4) and incubated for 10 minutes on ice-bath to remove the erythrocyte contamination. After centrifugation at 1,400 rpm for 10 minutes at 4° C., platelets were suspended in 10 ml of […], 5 mM KCl, 1 mM MgSO4, 10 mM glucose, 10 mM HEPES (pH 7.4) and 0.05 U/ml of hirudin, and stored at −20° C. until homogenisation. Platelets were thawed and 50 ml of 20 mM TRIS (pH=6.5) containing 5 mM β-mercapto-ethanol, 2 mM EDTA, 50 mM sodium acetate and 50 μM PMSF (homogenisation buffer) were added. The platelet suspension was then homogenised by a Polytron homogeniser (Polytron PT 1200) for 20 seconds. The homogenate was centrifuged at 14,500 rpm for 20 minutes at 4° C., and the supernatant was applied to an UNO Q12 column (Bio-Rad). The PDE 3 and PDE 5 were eluted by sodium acetate linear gradient from 0.05M to 1M using a flow rate of 4.5 ml/minutes. The fractions containing the enzymatic activities (PDE 3 or PDE 5) were pooled, dialysed against water and concentrated 10 times by ultrafiltration. The PDE 3 and PDE 5 fractions were stored at −20° C. in the presence of ethylene glycol (30% v/v) until use.
(§3) b) PDE 3 and PDE 5 Activity Assay
(§4) The enzyme activity was evaluated with a Scintillation Proximity Assay (SPA) kit (Amersham). The enzymatic reaction was performed in a final volume of 100 μl of TRIS/HCl buffer (50 mM, pH7.5), MgCl2 (8.3 mM), EGTA (1.7 mM), cAMP (for PDE 3 assay) or cGMP (for PDE 5 assay) (1 μM), [^3H]cAMP or [^3H]cGMP (10 μl ), and 10 μl of the compounds of the invention or vehicle. The reaction was started by adding the enzyme (1.0 μg) and incubated for 40 minutes at 30° C. SPA beads (50 μl) containing 18 mM zinc sulphate were added to stop the reaction and after 20 minutes at room temperature the radioacticity was measured using a scintillation counter.
(§5) The compounds were tested at 10^−6M and the results are expressed as percent of inhibition.

In a further test the target is PDE 4. The experiment in a line: PDE 4 enzyme inhibition (SPA). Particulars: PDE 4 purified from human PMNs; cAMP 1 μM. How it is done: a) Human Polymorphonuclear Leukocyte Isolation
The polymorphonuclear leukocytes (PMNs) were isolated from peripheral blood of healthy volunteers according to Boyum A. (Scand. J. Immunol., 1976, 5th suppl., 9). Briefly, the PMNs were purified by Ficoll-Paque gradient centrifugation followed by sedimentation on dextran and the erythrocyte contamination was eliminated by hypotonic lysis.
b) PDE 4 Enzyme Purification
The human PMNs were suspended in TRIS/HCl buffer (10 mM, pH 7.8) containing MgCl2 (5 mM), EGTA (4 mM), mercaptoethanol (5 mM), TRITON-X100 (1%), pepstatin A (1 μM), PMSF (100 μM) and leupeptin (1 μM), and homogenised by Polytron homogeniser. The homogenate was centrifuged at 25,000×g for 30 minutes at 4° C. and the PDE 4 enzyme was purified by ion exchange chromatography using the FPLC technique according to Schudt C. et al. (Naunyn-Schmidberg's Arch. Pharmacol., 1991, 334, 682). The supernatant was seeded on a UNO Q12 column (Bio-Rad) and the enzyme was eluted by sodium acetate linear gradient from 50 mM to 1M using a flow rate of 4.5 ml/minutes. The fractions containing enzymatic activity were pooled, dialysed against water and concentrated. The PDE 4 enzyme was stored at, −20° C. in the presence of ethylene glycol (30% v/v) until the use.
The enzyme activity was evaluated with a Scintillation Proximity Assay (SPA) kit (Amersham). The enzymatic reaction was performed in a final volume of 100 μl of TRIS/HCl buffer (50 mM, pH 7.5), MgCl2 (8.3 mM), EGTA (1.7 mM), cAMP (1 μM) and [^3H]cAMP (˜100.000 dpm) as tracer. The compounds of the invention, the reference ones or the vehicle were added at different concentrations. As reference compounds 6,7-dimethoxy-4-pyridin-4-yl-methyl)2H-phthalazin-1-one (reference 1) and 6,7-dimethoxy-4-(piperidin-4-yl-methyl)2H-phthalazin-1-one (reference 2) embraced by the general formula of the patent application EP-0 722 936 (in the name of Eisai) were used. The reaction was started by adding 1.5 μg protein and incubated for 40 minutes at 30° C. SPA beads (50 μl) containing 18 mM zinc sulphate were added to stop the reaction and after 20 minutes at room temperature the radioactivity was measured using a scintillation counter.
The IC50 value refers to the nanomolar concentration of the compound required to inhibit cyclic nucleotide hydrolysis by 50%, and it was calculated by non-linear regression analysis.

A further test has as its target T2, PDE 3 (Homo sapiens, UniProt Q14432).
T2 construct: The fractions containing the enzymatic activities (PDE 3 or PDE 5) were pooled; from tissue; host or cells: human platelets from platelet rich plasma of healthy volunteers
The test can be described thus: PDE 3 enzyme inhibition (SPA). Particulars: 10^−6 M; PDE 3 from human platelets; cAMP. On the procedure:
as §1, §2, §3, §4, §5

Counter-ions that a name gives are not always drawn.

As usually defined, the inhibition is the change of the read-out against control, counted positive when it falls. The IC50 is the concentration that inhibits the measured activity by half. A low value points to higher potency.

T2 sequence (Q14432 whole entry): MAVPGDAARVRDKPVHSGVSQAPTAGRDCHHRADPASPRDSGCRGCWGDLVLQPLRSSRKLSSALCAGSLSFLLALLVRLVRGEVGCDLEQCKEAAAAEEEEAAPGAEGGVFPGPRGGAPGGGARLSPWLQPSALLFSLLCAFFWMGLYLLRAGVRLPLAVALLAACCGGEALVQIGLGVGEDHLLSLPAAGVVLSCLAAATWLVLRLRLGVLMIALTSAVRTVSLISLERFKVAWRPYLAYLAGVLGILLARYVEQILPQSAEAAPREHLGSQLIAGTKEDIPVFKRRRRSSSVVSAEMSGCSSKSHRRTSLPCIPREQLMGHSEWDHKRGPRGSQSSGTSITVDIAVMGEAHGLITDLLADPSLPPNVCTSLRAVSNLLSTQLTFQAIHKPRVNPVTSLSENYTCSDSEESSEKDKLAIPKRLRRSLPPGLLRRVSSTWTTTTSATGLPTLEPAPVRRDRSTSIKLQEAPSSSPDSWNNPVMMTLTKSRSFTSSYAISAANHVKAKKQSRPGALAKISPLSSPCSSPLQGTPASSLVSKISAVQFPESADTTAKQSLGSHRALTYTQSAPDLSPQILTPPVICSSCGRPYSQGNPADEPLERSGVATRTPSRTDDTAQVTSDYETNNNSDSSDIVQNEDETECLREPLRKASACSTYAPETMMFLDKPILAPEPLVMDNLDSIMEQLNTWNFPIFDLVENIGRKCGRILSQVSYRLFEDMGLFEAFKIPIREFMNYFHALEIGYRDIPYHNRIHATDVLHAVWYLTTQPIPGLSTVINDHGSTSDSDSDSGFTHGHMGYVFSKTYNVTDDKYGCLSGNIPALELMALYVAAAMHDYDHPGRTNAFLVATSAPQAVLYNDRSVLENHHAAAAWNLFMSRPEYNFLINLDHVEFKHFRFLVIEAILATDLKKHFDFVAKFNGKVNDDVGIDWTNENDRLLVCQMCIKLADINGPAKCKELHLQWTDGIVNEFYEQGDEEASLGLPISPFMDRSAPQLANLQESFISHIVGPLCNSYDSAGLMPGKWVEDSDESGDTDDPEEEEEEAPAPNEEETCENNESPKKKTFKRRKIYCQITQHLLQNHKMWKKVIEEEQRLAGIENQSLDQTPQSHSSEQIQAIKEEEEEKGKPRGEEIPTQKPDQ

Take `COc1ccc2c(c1)CN(S(C)(=O)=O)N=C2Cc1c(Cl)cncc1Cl` [Compound 15, 4-(3,5-Dichloro-pyridin-4-ylmethyl)-2-methanesulfonyl-7-methoxy-1,2-dihydro-phthalazine]: the inhibition at 1 µM against PDE 5 is 0%; against PDE 3 it was 15%. Half-maximal inhibition at PDE 4 (IC50) required 0.021 ± 0.004 µM.

In the case of `COc1ccc2c(c1)CN(C(=O)C(C)C)N=C2Cc1c(Cl)cncc1Cl` [Compound 11, 1-[4-(3,5-Dichloro-pyridin-4-ylmethyl)-7-methoxy-1H-phthalazin-2-yl]-2-methyl-propan-1-one], the values for the inhibition at 1 µM on PDE 5 and at PDE 3 were 10% and 17%, respectively. At PDE 4, half-maximal inhibition (IC50) required 0.026 ± 0.003 µM.

Turning to `CNC(=O)N1Cc2cc(OC)ccc2C(Cc2c(Cl)cncc2Cl)=N1` [Compound 17, 4-(3,5-Dichloro-pyridin-4-ylmethyl)-7-methoxy-1H-phthalazine-2-carboxylic acid methyl-amide], the inhibition at 1 µM against PDE 5 amounted to 21%; on PDE 3, 12%. Besides, the IC50 against PDE 4 stood at 0.131 ± 0.024 µM.

With `COc1ccc2c(Cc3c(Cl)cncc3Cl)nncc2c1C#CCCCN1CCOCC1` [Compound 36, 1-(3,5-Dichloro-pyridin-4-ylmethyl)-6-methoxy-5-(5-morpholin-4-yl-pent-1-ynyl)-phthalazine dihydrochloride], the IC50 on PDE 4 came to 0.0964 ± 0.0073 µM.

`COc1ccc2c(Cc3c(Cl)cncc3Cl)nn(CCc3ccccc3)c(=O)c2c1` [Compound 22, 4-(3,5-Dichloro-pyridin-4-ylmethyl)-7-methoxy-2-phenethyl-2H-phthalazin-1-one]: the inhibition at 1 µM against PDE 5 turned out to be 8%; at PDE 3, 20%. In addition, half-maximal inhibition at PDE 4 (IC50) required 0.225 ± 0.035 µM.

For `COc1ccc2c(c1)CN(C(=O)c1ccccc1)N=C2Cc1c(Cl)cncc1Cl` [Compound 12, [4-(3,5-Dichloro-pyridin-4-ylmethyl)-7-methoxy-1H-phthalazin-2-yl]-phenyl-methanone], inhibition on PDE 4 was half-maximal at 0.03 ± 0.008 µM (IC50).

On PDE 4, `COc1ccc2c(Cc3c(Cl)cncc3Cl)nncc2c1C#CCN(C)Cc1ccccc1` [Compound 35, Benzyl-{3-[1-(3,5-dichloro-pyridin-4-ylmethyl)-6-methoxy-phthalazin-5-yl]-prop-2-ynyl}-methyl-amine dihydrochloride] yielded a 50% inhibitory concentration (IC50) of 0.0071 ± 0.0005 µM.

As to `COc1ccc2c(Cc3c(Cl)cncc3Cl)nnc(-c3nccs3)c2c1` [Compound 26, 1-(3,5-Dichloro-pyridin-4-ylmethyl)-6-methoxy-4-thiazol-2-yl-phthalazine], the inhibition at 1 µM on PDE 5 is 0%. The IC50 against PDE 4 came out at 0.014 ± 0.002 µM.

For the compound `CCn1nc(Cc2c(Cl)cncc2Cl)c2ccc(OC)cc2c1=O` [Compound 20, 4-(3,5-Dichloro-pyridin-4-ylmethyl)-2-ethyl-7-methoxy-2H-phthalazin-1-one], the inhibition at 1 µM at PDE 5 is 11%; against PDE 3, 5%. The compound also displayed a half-inhibitory concentration (IC50) against PDE 4 of 0.158 ± 0.034 µM.

In turn, `COc1ccc2c(c1)CN(C(=O)Cc1ccccc1)N=C2Cc1c(Cl)cncc1Cl` [Compound 13, 1-[4-(3,5-Dichloro-pyridin-4-ylmethyl)-7-methoxy-1H-phthalazin-2-yl]-2-phenyl-ethanone] displayed an IC50 on PDE 4 of 0.012 ± 0.002 µM.

As for `C#Cc1nnc(Cc2c(Cl)cncc2Cl)c2ccc(OC)cc12` [Compound 60, 1-(3,5-Dichloro-pyridin-4-ylmethyl)-4-ethynyl-6-methoxy-phthalazine], the inhibition at 1 µM is 1% against PDE 5 and -2% at PDE 3. At PDE 4, this compound had an IC50 of 0.093 ± 0.029 µM.

Regarding `COc1ccc2c(Cc3c(Cl)cncc3Cl)nn(S(C)(=O)=O)c(=O)c2c1` [Compound 24, 4-(3,5-Dichloro-pyridin-4-methyl)-2-methanesulfonyl-7-methoxy-2H-phthalazin-1-one], half-maximal inhibition at PDE 4 (IC50) required 0.036 ± 0.009 µM.

The compound `CCC(=O)N1Cc2cc(OC)ccc2C(Cc2c(Cl)cncc2Cl)=N1` [Compound 10, 1-[4-(3,5-Dichloro-pyridin-4-ylmethyl)-7-methoxy-1H-phthalazin-2-yl]-propan-1-one] returned a 50% inhibitory concentration (IC50) against PDE 4 of 0.028 ± 0.004 µM.

Take `COc1ccc2c(Cc3c(Cl)cncc3Cl)nncc2c1C=CCCCc1ccccc1` [Compound 33, 1-(3,5-Dichloro-pyridin-4-ylmethyl)-6-methoxy-5-(5-phenyl-pent-1-enyl)phthalazine]: the IC50 against PDE 4 came to 0.019 ± 0.003 µM. This IC50 and that of the compound before are within 1.5-fold of each other.

Turning to `FC(F)Oc1ccc2c(Cc3c(Cl)cncc3Cl)nnc(N3CCOCC3)c2c1` [Compound 55, 1-(3,5-Dichloro-pyridin-4-ylmethyl)-6-difluoromethoxy-4-morpholin-4-yl-phthalazine], on PDE 4, the IC50 was 0.312 ± 0.048 µM.

On to `COc1ccc2c(Cc3c(Cl)cncc3Cl)nnc(C#Cc3ccccc3)c2c1` [Compound 27, 1-(3,5-Dichloro-pyridin-4-ylmethyl)-6-methoxy-4-phenylethynyl-phthalazine], for which the values for the inhibition at 1 µM at PDE 5 and on PDE 3 were 9% and 15%, respectively. At PDE 4, this compound gave an IC50 of 0.048 ± 0.012 µM.

Consider `COC(=O)N1Cc2cc(OC)ccc2C(Cc2c(Cl)cncc2Cl)=N1` [Compound 16, 4-(3,5-Dichloro-pyridin-4-ylmethyl)-7-methoxy-1H-phthalazine-2-carboxylic acid methyl ester], for which, on PDE 4, the IC50 turned out to be 0.072 ± 0.016 µM.

In the case of `COc1ccc2c(c1)CN(C(N)=O)N=C2Cc1c(Cl)cncc1Cl` [Compound 9, 4-(3,5-Dichloro-pyridin-4-ylmethyl)-7-methoxy-1H-phthalazine-2-carboxylic acid amide], it took 0.036 ± 0.004 µM to reach half-maximal inhibition against PDE 4 (IC50).

`COc1ccc2c(Cc3c(Cl)cncc3Cl)nncc2c1C#CCCCc1ccccc1` [Compound 32, 1-(3,5-Dichloro-pyridin-4-ylmethyl)-6-methoxy-5-(5-phenyl-pent-1-ynyl)-phthalazine]: the IC50 against PDE 4 amounted to 0.01 ± 0.002 µM.

The compound `COc1ccc2c(Cc3c(Cl)cncc3Cl)nncc2c1C#CCO` [Compound 37, 3-[1-(3,5-Dichloro-pyridin-4-ylmethyl)-6-methoxy-phthalazin-5-yl]-prop-2-yn-1-ol] had an IC50 on PDE 4 of 0.061 ± 0.0024 µM.

For `FC(F)Oc1ccc2c(Cc3c(Cl)cncc3Cl)nnc(-n3cncn3)c2c1` [Compound 54, 1-(3,5-Dichloro-pyridin-4-ylmethyl)-6-difluoromethoxy-4-[1,2,4]triazol-1-yl-phthalazine], the figures for the inhibition at 1 µM against PDE 5 and at PDE 3 were 33% and 2%, respectively.

Regarding `COc1ccc2c(Cc3c(Cl)cncc3Cl)nn(CCCCCc3ccccc3)c(=O)c2c1` [Compound 23, 4-(3,5-Dichloro-pyridin-4-ylmethyl)-7-methoxy-2-(5-phenyl-pentyl)-2H-phthalazin-1-one], the values for the inhibition at 1 µM against PDE 5 and against PDE 3 were 21% and 19%, respectively. At PDE 4, this compound displayed an IC50 of 0.209 ± 0.026 µM.
